Measured values as given in patent publication US7754718B2 (priority 2004, dated 2010).
Structures can show the parent of a compound that is named as a salt. Where two headings read alike, the source gives them in different places.

Assays:
HBV = test: In vitro antiviral assay for HBV (Table 1); type: cell-based, Hepatitis B virus; conditions: read-out: Antiviral Activities (EC50, μM) HBV
HCV [1] = test: Anti-HCV activity in Huh-Luc/neo cell line, luciferase activity after 3-day treatment; type: cell-based, Hepatitis C virus; conditions: Huh-Luc/neo cells
HSV-1 = test: In vitro antiviral assay for HSV-1; type: cell-based, Herpes Simplex Virus 1
How it was run: (§1)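 Performed according to previously reported procedures for each virus; no further conditions are given for the HSV-2, CMV, HIV or EBV assays.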

HSV-2 = test: In vitro antiviral assay for HSV-2; type: cell-based, Herpes Simplex Virus 2
How it was run: as §1

EBV = test: In vitro antiviral assay for EBV; type: cell-based, Epstein-Barr Virus
How it was run: as §1

HIV = test: In vitro antiviral assay for HIV; type: cell-based, human immunodeficiency virus; conditions: (T) after a value means toxic
How it was run: as §1

MT-2 cells = test: Cell cytotoxicity assay on MT-2 cells; type: cell-based; conditions: read-out: Cytotoxity (ID50, μM) MT-2
How it was run: (§2)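 MT-2 and CEM cytotoxicity determined per previously reported procedures. HepG2 cells seeded at 10^4 cells/ml in MEME + 10% FBS, compound added on day 2 for 3 further days at 37° C. Viable layer stained with methylene blue, solubilized in 1% sarcosyl, A595 read.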

CEM cells = test: Cell cytotoxicity assay on CEM cells; type: cell-based; conditions: read-out: Cytotoxity (ID50, μM) CEM
How it was run: as §2

HCV [2] = conditions: ribavirin alone; cited from earlier work
CMV = test: In vitro antiviral assay for CMV; type: cell-based, cytomegalovirus
Procedure: The antiviral assays for HBV, (Doong et al., 1991, Proc. Natl. Acad. Sci. U.S.A. 88:8495-8499) HSV-1, (Bastow et al., 1983, Antimicrob. Agents Chemother. 23: 914-917) HSV-2, (Bastow et al., 1983, Antimicrob. Agents Chemother. 23:914-917) EBV, (Yao et al., 1993, Antimicrob. Agents Chemother. 37:1420-1425), CMV (Andreoni et al., 2002, J. Med. Virol. 67:33-40) and HIV (Mellors et al., 1992, Mol. Pharmacol. 41: 446-451) were performed according to the previously reported procedures. Anti-HCV activities were tested in Huh-Luc/neo cell line. Cells were seeded into 48-well plates and grown until confluent. Different concentrations of drugs were added into media (DMEM, 10% dFBS) and incubated for 3 days. At the end of 3-day treatment, medium were removed and 50 μl of Passive lysis buffer (Promega) were added. Cell lysate was shaken at room temperature for 15 min. 30 μl/well of cell lysate was transferred to another 96-well plate, 100 μl/well of luciferase activity assay substrate was added into plate and read by a luminometer (Amersham) immediately.

HCV [3] = conditions: patients chronically infected with HCV, IFN as sole treatment; cited from earlier work
[4] = Cell cytotoxicity assay on MT-2 cells; type: cell-based; conditions: human, read-out: Cytotoxity (ID50, μM) MT-2
How it was run: as §2

[5] = Cell cytotoxicity assay on CEM cells; type: cell-based; conditions: human, read-out: Cytotoxity (ID50, μM) CEM
How it was run: as §2

[6] = in vitro, read-out: Antiviral Activities (EC50, μM) HSV-1
[7] = in vitro, read-out: Antiviral Activities (EC50, μM) HSV-2
[8] = in vitro, read-out: Antiviral Activities (EC50, μM) EBV
[9] = in vitro, read-out: Antiviral Activities (EC50, μM) HIV

Compound | EC50 (HBV; in vitro) [µM] | EC50 (HSV-1; [6]) [µM] | EC50 (HSV-2; [7]) [µM] | EC50 (EBV; [8]) [µM] | EC50 (HIV; [9]) [µM] | IC50 (MT-2 cells) [µM] | IC50 (CEM cells) [µM] | further results
O=C1c2cc3ccc4c(c3c(-c3ccc5c(c3)OCO5)c2C(=O)N1CCCOCc1ccccc1)OCO4 [Compound 10, 10-Benzo[1,3]dioxol-5-yl-8-(3-benzyloxy-propyl)-1,3-dioxa-8-aza-dicycloplenta[a,g]naphthalene-7,9-dione] | > 10 | > 50 | > 50 | > 5 | > 100 | > 100 | > 100 | HCV percent of inhibition (HCV [1]; at 10 μM, 3 days): 62%
NC(=O)c1ncn([C@@H]2O[C@H](CO)[C@@H](O)[C@H]2O)n1 [Ribavirin, 1-beta-D-ribofuranosyl-1-1,2,4-triazole-3-carboxamide] | – | – | – | – | – | – | – | patients in whom serum amino transferase levels are reduced to normal (HCV [2]): 40%
O=C1NCc2cc3ccc4c(c3c(-c3ccc5c(c3)OCO5)c21)OCO4 [Compound 16, 10-Benzo[1,3]dioxol-5-yl-7,8-dihydro-13-dioxa-8-aza-dicyclopenta[a,g]naphthalen-9-one] | > 10 | > 50 | > 50 | > 20 | > 100 | > 100 | 90 | EC50 (HCV [1]; 3 days, given as a bound only, read-out: Antiviral Activities (EC50, μM) HCV): > 10 µM
O=C(O)c1cc2c(Br)cc3c(c2c(-c2ccc4c(c2)OCO4)c1CO)OCO3 [Compound 45, 9-Benzo[1,3]dioxol-5-yl-5-bromo-8-hydroxymethyl-naphtho[1,2-d][1.3]dioxole-7-carboxylic acid monosodium salt] | > 10 | > 50 | > 50 | > 20 | > 50 | 50 | 46.5 | EC50 (CMV; in vitro, read-out: Antiviral Activities (EC50, μM) CMV): > 20 µM
Interferon | – | – | – | – | – | – | – | HCV column: concentration at which the percent of inhibition was seen (HCV [1]; Interferon control): 10 u/ml; HCV percent of inhibition (HCV [1]; at 10 u/ml): (90) %; patients with a sustained response (HCV [3]): 8%-9%
O=c1[nH][nH]c(=O)c2c(-c3ccc4c(c3)OCO4)c3c4c(cc(Br)c3cc12)OCO4 [Compound 42, 11-Benzo[1,3]dioxol-5-yl-5-bromo-8,9-dihydro-[1,3]dioxa-8,9-diaza-cyclopenta[a]anthracene-7,10-dione] | > 20 | 16 | > 20 | > 20 | – | > 100 | 28 | HCV percent of inhibition (HCV [1]; at 3 μM, 3 days): 45%
O=C([O-])c1cc2ccc3c(c2c(-c2ccc4c(c2)OCO4)c1CO)OCO3.[Na+] [Compound 3, 9-Benzo[1,3]dioxol-5-yl-8-hydroxymethyl-naphtho[1,2-d][1,3]dioxole-7-carboxylic acid monosodium salt] | – | – | – | – | – | – | – | EC50 (HBV; Hepatitis B virus): 3.4 µM; inhibition at 10 µM (HCV [1]; Hepatitis C virus, 72 h, at 10 μM, 3 days, read-out: HCV percent of inhibition): 25%; EC50 (HSV-1; Human alphaherpesvirus 1, read-out: Antiviral Activities (EC50, μM) HSV-1): 9 µM; EC50 (HSV-2; Human alphaherpesvirus 2, read-out: Antiviral Activities (EC50, μM) HSV-2): 25 µM; EC50 (EBV; human gammaherpesvirus 4, read-out: Antiviral Activities (EC50, μM) EBV): > 20 µM; EC50 (CMV; Human betaherpesvirus 5, read-out: Antiviral Activities (EC50, μM) CMV): 2.5 µM; EC50 (HIV; Human immunodeficiency virus 1, read-out: Antiviral Activities (EC50, μM) HIV, in vitro): > 10 µM; IC50 [4]: 10 µM; IC50 [5]: 30 µM; melting point: 128 to 130 °C
